Test results taken from ChEMBL document CHEMBL1909046, “DrugMatrix in vitro pharmacology data”.

How the values were obtained:
Glucocorticoid receptor = molecular target: T1, Glucocorticoid receptor (Homo sapiens, UniProt P04150); conditions: hela s3; note: in other assays of this panel Not Active means under 50% inhibition at 10 µM
T1 sequence (P04150 whole entry): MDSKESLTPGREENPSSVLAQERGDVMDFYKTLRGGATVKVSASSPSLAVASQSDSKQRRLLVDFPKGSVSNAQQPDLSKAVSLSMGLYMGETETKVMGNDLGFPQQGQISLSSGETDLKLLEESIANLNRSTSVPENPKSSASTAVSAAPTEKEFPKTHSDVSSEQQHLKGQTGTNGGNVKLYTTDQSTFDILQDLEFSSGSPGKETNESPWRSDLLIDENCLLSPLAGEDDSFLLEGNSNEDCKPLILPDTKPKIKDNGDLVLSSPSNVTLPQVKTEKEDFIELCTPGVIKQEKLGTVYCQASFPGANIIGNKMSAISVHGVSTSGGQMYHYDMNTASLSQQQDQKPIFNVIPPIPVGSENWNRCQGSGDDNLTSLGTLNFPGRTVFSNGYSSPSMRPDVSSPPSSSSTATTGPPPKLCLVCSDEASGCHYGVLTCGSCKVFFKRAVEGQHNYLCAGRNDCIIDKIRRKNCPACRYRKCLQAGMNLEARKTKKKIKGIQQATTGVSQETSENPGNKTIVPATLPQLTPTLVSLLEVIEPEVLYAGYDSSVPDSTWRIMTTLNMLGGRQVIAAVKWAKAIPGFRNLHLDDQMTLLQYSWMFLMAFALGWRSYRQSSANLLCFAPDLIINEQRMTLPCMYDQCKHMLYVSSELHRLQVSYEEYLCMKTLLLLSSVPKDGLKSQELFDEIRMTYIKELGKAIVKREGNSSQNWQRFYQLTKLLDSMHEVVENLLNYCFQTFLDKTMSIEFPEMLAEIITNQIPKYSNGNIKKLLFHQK

[1] = DRUGMATRIX: Nicotinic Acetylcholine radioligand binding (ligand: [125I] Epibatidine); format: cell membranes, Membrane; conditions: imr-32; Not Active = under 50% inhibition at 10 µM
Calcitonin receptor = molecular target: T2, Calcitonin receptor (Homo sapiens, UniProt P30988); format: cell membranes, Membrane; conditions: t47d; note: in other assays of this panel Not Active means under 50% inhibition at 10 µM
T2 sequence (P30988 whole entry): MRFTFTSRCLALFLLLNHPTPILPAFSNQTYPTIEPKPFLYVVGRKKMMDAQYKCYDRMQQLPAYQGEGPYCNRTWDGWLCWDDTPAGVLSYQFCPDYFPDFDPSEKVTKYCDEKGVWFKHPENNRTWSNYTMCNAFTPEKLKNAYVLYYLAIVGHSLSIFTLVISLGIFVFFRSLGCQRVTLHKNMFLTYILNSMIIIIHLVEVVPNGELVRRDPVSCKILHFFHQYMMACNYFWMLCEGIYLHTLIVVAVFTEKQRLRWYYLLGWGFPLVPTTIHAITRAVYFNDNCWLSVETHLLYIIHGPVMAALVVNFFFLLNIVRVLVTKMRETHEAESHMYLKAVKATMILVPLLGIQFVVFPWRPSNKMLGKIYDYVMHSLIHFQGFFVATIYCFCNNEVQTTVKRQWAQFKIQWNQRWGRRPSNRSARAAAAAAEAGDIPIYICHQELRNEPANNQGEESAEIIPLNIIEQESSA

[2] = DRUGMATRIX: Calcium Channel Type L, Dihydropyridine radioligand binding (ligand: [3H] Nitrendipine); format: cell membranes, Rattus norvegicus, Wistar, Cerebral cortex, Membrane; conditions: Not Active = under 50% inhibition at 10 µM
Glycine receptor = Glycine receptor (Rattus norvegicus, UniProt P22771+P24524+P07727+P20781); format: cell membranes, Wistar, Spinal cord, Membrane; note: in other assays of this panel Not Active means under 50% inhibition at 10 µM
Cannabinoid receptor 1 = Cannabinoid receptor 1 (Homo sapiens, UniProt P21554); format: cell membranes, Membrane; conditions: chem-1; note: in other assays of this panel Not Active means under 50% inhibition at 10 µM
[3] = DRUGMATRIX: Atrial Natriuretic Factor (ANF) radioligand binding (ligand: [125I] ANF (rat)); format: cell membranes, Cavia porcellus, Dunkin-Hartley, Adrenal gland, Membrane; conditions: Not Active = under 50% inhibition at 10 µM
[4] = DRUGMATRIX: GABAA, Chloride Channel, TBOB radioligand binding (ligand: [3H] TBOB); format: cell membranes, Rattus norvegicus, Wistar, Cerebral cortex, Membrane; conditions: Not Active = under 50% inhibition at 10 µM

Cannabinoid receptor 1, sequence (P21554 whole entry): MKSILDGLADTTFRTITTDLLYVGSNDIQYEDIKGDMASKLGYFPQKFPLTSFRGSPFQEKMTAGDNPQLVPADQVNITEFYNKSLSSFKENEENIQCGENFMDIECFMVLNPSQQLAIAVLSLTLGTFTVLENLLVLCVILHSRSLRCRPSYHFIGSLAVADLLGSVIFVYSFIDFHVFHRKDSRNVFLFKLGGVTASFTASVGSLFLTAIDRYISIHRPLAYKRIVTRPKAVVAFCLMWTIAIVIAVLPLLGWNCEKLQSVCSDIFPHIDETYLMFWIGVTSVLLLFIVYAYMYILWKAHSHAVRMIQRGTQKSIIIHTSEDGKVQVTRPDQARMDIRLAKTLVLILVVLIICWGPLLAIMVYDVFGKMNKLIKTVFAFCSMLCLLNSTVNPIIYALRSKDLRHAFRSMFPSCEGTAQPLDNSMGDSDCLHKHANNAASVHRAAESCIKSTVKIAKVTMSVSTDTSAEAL

O=C(CCCN1CC=C(n2c(=O)[nH]c3ccccc32)CC1)c1ccc(F)cc1 [DROPERIDOL]
Not Active: IC50 (Glucocorticoid receptor) | IC50 [1] | Ki [1] | IC50 (Calcitonin receptor) | IC50 [2] | Ki [2] | IC50 (Glycine receptor) | IC50 (Cannabinoid receptor 1) | IC50 [3] | Ki [3] | IC50 [4] | Ki [4]

CC(C)[C@H]1C(=O)N2CCC[C@H]2[C@]2(O)O[C@](NC(=O)[C@@H]3C=C4c5cccc6[nH]cc(c56)C[C@H]4N(C)C3)(C(C)C)C(=O)N12 [ERGOCORNINE]
Not Active: IC50 (Glucocorticoid receptor) | IC50 [1] | Ki [1] | IC50 (Calcitonin receptor) | IC50 [2] | Ki [2] | IC50 (Glycine receptor) | IC50 (Cannabinoid receptor 1) | IC50 [3] | Ki [3] | IC50 [4] | Ki [4]

OC(Cn1cncn1)(Cn1cncn1)c1ccc(F)cc1F [FLUCONAZOLE]
Not Active: IC50 (Glucocorticoid receptor) | IC50 [1] | Ki [1] | IC50 (Calcitonin receptor) | IC50 [2] | Ki [2] | IC50 (Glycine receptor) | IC50 (Cannabinoid receptor 1) | IC50 [3] | Ki [3] | IC50 [4] | Ki [4]

N=C(N)NCCN1CCCCCCC1 [GUANETHIDINE]
Not Active: IC50 (Glucocorticoid receptor) | IC50 [1] | Ki [1] | IC50 (Calcitonin receptor) | IC50 [2] | Ki [2] | IC50 (Glycine receptor) | IC50 (Cannabinoid receptor 1) | IC50 [3] | Ki [3] | IC50 [4] | Ki [4]

O=c1[nH]c(=O)n([C@H]2C[C@H](O)[C@@H](CO)O2)cc1I [IDOXURIDINE]
Not Active: IC50 (Glucocorticoid receptor) | IC50 [1] | Ki [1] | IC50 (Calcitonin receptor) | IC50 [2] | Ki [2] | IC50 (Glycine receptor) | IC50 (Cannabinoid receptor 1) | IC50 [3] | Ki [3] | IC50 [4] | Ki [4]

Nc1nc(N)nc(-c2cc(Cl)ccc2Cl)n1.O=C(O)/C=C\C(=O)O [IRSOGLADINE MALEATE]
Not Active: IC50 (Glucocorticoid receptor) | IC50 [1] | Ki [1] | IC50 (Calcitonin receptor) | IC50 [2] | Ki [2] | IC50 (Glycine receptor) | IC50 (Cannabinoid receptor 1) | IC50 [3] | Ki [3] | IC50 [4] | Ki [4]

CCCCc1nc(Cl)c(CO)n1Cc1ccc(-c2ccccc2-c2nnn[nH]2)cc1 [LOSARTAN]
Not Active: IC50 (Glucocorticoid receptor) | IC50 [1] | Ki [1] | IC50 (Calcitonin receptor) | IC50 [2] | Ki [2] | IC50 (Glycine receptor) | IC50 (Cannabinoid receptor 1) | IC50 [3] | Ki [3] | IC50 [4] | Ki [4]

Cc1ccccc1N1C(=O)c2cc(S(N)(=O)=O)c(Cl)cc2NC1C (stereo not given) [METOLAZONE]
Not Active: IC50 (Glucocorticoid receptor) | IC50 [1] | Ki [1] | IC50 (Calcitonin receptor) | IC50 [2] | Ki [2] | IC50 (Glycine receptor) | IC50 (Cannabinoid receptor 1) | IC50 [3] | Ki [3] | IC50 [4] | Ki [4]

COCCc1ccc(OCC(O)CNC(C)C)cc1 (stereo not given) [METOPROLOL]
Not Active: IC50 (Glucocorticoid receptor) | IC50 [1] | Ki [1] | IC50 (Calcitonin receptor) | IC50 [2] | Ki [2] | IC50 (Glycine receptor) | IC50 (Cannabinoid receptor 1) | IC50 [3] | Ki [3] | IC50 [4] | Ki [4]

CCn1cc(C(=O)O)c(=O)c2cc(F)c(N3CCNCC3)cc21 [NORFLOXACIN]
Not Active: IC50 (Glucocorticoid receptor) | IC50 [1] | Ki [1] | IC50 (Calcitonin receptor) | IC50 [2] | Ki [2] | IC50 (Glycine receptor) | IC50 (Cannabinoid receptor 1) | IC50 [3] | Ki [3] | IC50 [4] | Ki [4]

NC1=NC(=O)C(c2ccccc2)O1 (stereo not given) [PEMOLINE]
Not Active: IC50 (Glucocorticoid receptor) | IC50 [1] | Ki [1] | IC50 (Calcitonin receptor) | IC50 [2] | Ki [2] | IC50 (Glycine receptor) | IC50 (Cannabinoid receptor 1) | IC50 [3] | Ki [3] | IC50 [4] | Ki [4]

Nc1nc2c(ncn2CCC(CO)CO)c(=O)[nH]1 [PENCICLOVIR]
Not Active: IC50 (Glucocorticoid receptor) | IC50 [1] | Ki [1] | IC50 (Calcitonin receptor) | IC50 [2] | Ki [2] | IC50 (Glycine receptor) | IC50 (Cannabinoid receptor 1) | IC50 [3] | Ki [3] | IC50 [4] | Ki [4]

C=C(C)C1(O)OC(=O)C=C1OC (stereo not given) [PENICILLIC ACID]
Not Active: IC50 (Glucocorticoid receptor) | IC50 [1] | Ki [1] | IC50 (Calcitonin receptor) | IC50 [2] | Ki [2] | IC50 (Glycine receptor) | IC50 (Cannabinoid receptor 1) | IC50 [3] | Ki [3] | IC50 [4] | Ki [4]

CC1(C)S[C@@H]2[C@H](NC(=O)Cc3ccccc3)C(=O)N2[C@H]1C(=O)O [PENICILLIN G]
Not Active: IC50 (Glucocorticoid receptor) | IC50 [1] | Ki [1] | IC50 (Calcitonin receptor) | IC50 [2] | Ki [2] | IC50 (Glycine receptor) | IC50 (Cannabinoid receptor 1) | IC50 [3] | Ki [3] | IC50 [4] | Ki [4]

CCCN1C[C@H](CSC)C[C@@H]2c3cccc4[nH]cc(c34)C[C@H]21 [PERGOLIDE]
Not Active: IC50 (Glucocorticoid receptor) | IC50 [1] | Ki [1] | IC50 (Calcitonin receptor) | IC50 [2] | Ki [2] | IC50 (Glycine receptor) | IC50 (Cannabinoid receptor 1) | IC50 [3] | Ki [3] | IC50 [4] | Ki [4]

C1CCC(C(CC2CCCCN2)C2CCCCC2)CC1 (stereo not given) [PERHEXILINE]
Not Active: IC50 (Glucocorticoid receptor) | IC50 [1] | Ki [1] | IC50 (Calcitonin receptor) | IC50 [2] | Ki [2] | IC50 (Glycine receptor) | IC50 (Cannabinoid receptor 1) | IC50 [3] | Ki [3] | IC50 [4] | Ki [4]

CCOc1ccc(NC(C)=O)cc1 [PHENACETIN]
Not Active: IC50 (Glucocorticoid receptor) | IC50 [1] | Ki [1] | IC50 (Calcitonin receptor) | IC50 [2] | Ki [2] | IC50 (Glycine receptor) | IC50 (Cannabinoid receptor 1) | IC50 [3] | Ki [3] | IC50 [4] | Ki [4]

Cc1ccc(N(CC2=NCCN2)c2cccc(O)c2)cc1 [PHENTOLAMINE]
Not Active: IC50 (Glucocorticoid receptor) | IC50 [1] | Ki [1] | IC50 (Calcitonin receptor) | IC50 [2] | Ki [2] | IC50 (Glycine receptor) | IC50 (Cannabinoid receptor 1) | IC50 [3] | Ki [3] | IC50 [4] | Ki [4]

CNNCc1ccc(C(=O)NC(C)C)cc1 [PROCARBAZINE]
Not Active: IC50 (Glucocorticoid receptor) | IC50 [1] | Ki [1] | IC50 (Calcitonin receptor) | IC50 [2] | Ki [2] | IC50 (Glycine receptor) | IC50 (Cannabinoid receptor 1) | IC50 [3] | Ki [3] | IC50 [4] | Ki [4]

CC(O)CO (stereo not given) [PROPYLENE GLYCOL]
Not Active: IC50 (Glucocorticoid receptor) | IC50 [1] | Ki [1] | IC50 (Calcitonin receptor) | IC50 [2] | Ki [2] | IC50 (Glycine receptor) | IC50 (Cannabinoid receptor 1) | IC50 [3] | Ki [3] | IC50 [4] | Ki [4]
